Results from US4680283A, “Analogs of substance P and eledoisin” (Merck & Co., Inc., priority 1986, dated 1987).

Legend:
[1] = molecular target: T1, 125I-BH-SP binding sites in rat brain cortex membranes (Rattus norvegicus, UniProt P14600); assay: substance P (SP) binding assay (competition for 125I-BH-SP binding sites); conditions: peptides dissolved in DMSO
T1 construct: from tissue; host or cells: rat brain cortex membranes
Description: (§1) Representative compounds of this invention were tested in the substance P (SP) and eledoisin binding assays. The peptides were dissolved in DMSO and tested for their abilities to compete for ^125 I-BH-SP and ^125 I-BH-eledoison binding sites in rat brain cortex membranes (Cascieri and Liang, J. Biol. Chem., 258, 5158 (1983); Life Sciences, 35, 179 (1984)).
(§2) The following table summarizes the IC50 data obtained in both assay systems as well as showing the IC50 ratio for each peptide in the SP and eledoisin binding assays.

[2] = molecular target: T2, 125I-BH-eledoisin binding sites in rat brain cortex membranes (Rattus norvegicus, UniProt P16177); assay: eledoisin binding assay (competition for 125I-BH-eledoisin binding sites); conditions: peptides dissolved in DMSO
T2 construct: from tissue; host or cells: rat brain cortex membranes
T2 sequence (P16177 1-452): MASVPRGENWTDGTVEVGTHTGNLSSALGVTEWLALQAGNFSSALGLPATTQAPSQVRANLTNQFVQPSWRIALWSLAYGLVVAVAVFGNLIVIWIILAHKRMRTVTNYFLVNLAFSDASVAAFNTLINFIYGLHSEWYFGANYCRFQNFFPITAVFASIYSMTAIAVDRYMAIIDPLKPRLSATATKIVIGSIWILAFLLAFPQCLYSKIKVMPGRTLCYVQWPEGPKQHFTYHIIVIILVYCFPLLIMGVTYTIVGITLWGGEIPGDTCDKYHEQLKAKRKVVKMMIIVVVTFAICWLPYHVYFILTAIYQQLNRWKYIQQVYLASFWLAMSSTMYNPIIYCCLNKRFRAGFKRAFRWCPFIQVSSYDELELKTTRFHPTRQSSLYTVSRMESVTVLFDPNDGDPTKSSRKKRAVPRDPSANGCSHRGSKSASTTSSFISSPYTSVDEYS
Description: as §1, §2

T1 sequence (P14600 whole entry): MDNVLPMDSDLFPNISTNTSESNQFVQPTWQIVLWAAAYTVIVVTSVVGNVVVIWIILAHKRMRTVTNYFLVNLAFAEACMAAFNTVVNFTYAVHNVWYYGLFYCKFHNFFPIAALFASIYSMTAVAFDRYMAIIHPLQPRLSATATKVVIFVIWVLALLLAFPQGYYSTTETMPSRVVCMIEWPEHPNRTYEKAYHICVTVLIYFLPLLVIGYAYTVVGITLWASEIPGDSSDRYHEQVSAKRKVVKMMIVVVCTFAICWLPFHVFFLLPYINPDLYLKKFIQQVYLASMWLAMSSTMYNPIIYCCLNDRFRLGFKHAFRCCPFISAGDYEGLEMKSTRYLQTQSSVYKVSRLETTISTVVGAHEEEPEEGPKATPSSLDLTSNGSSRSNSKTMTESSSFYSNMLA

| IC50 [1] | IC50 [2] | SMILES |
| --- | --- | --- |
| 60 µM | 32 µM | CSCC[C@H](NC(=O)[C@H](CC(C)C)N1CC[C@H](NC(=O)[C@H](Cc2ccccc2)NC(=O)[C@H](Cc2ccccc2)NC(=O)[C@@H]2CCC(=O)N2)C1=O)C(N)=O [L-363,232] |
| 13 µM | 0.014 µM | CSCC[C@H](NC(=O)[C@H](CC(C)C)N1CC[C@@H](NC(=O)[C@H](Cc2ccccc2)NC(=O)[C@H](Cc2ccccc2)NC(=O)[C@@H]2CCC(=O)N2)C1=O)C(N)=O [L-363,851, Pyroglutamyl-phenylalanyl-phenylalanyl-[(R)-3-amino-2-oxo-1-pyrrolidine-(S)-4-methyl-2-pentanoyl]-methionine amide] |
